The text below walks through data of US10336725B2, “Chemical compounds” (AstraZeneca AB, priority 2014, dated 2019).

Where a name gives a salt, the structure may show the parent alone.

The target in one assay is T1, Sodium Channel ENaC (Homo sapiens, UniProt P37088+P51168+P51170).
T1 construct: Human primary bronchial epithelial cells differentiated at air-liquid interface (ALI); host or cells: Human primary bronchial epithelial cells differentiated at air-liquid interface
T1 sequence (P37088 1-669): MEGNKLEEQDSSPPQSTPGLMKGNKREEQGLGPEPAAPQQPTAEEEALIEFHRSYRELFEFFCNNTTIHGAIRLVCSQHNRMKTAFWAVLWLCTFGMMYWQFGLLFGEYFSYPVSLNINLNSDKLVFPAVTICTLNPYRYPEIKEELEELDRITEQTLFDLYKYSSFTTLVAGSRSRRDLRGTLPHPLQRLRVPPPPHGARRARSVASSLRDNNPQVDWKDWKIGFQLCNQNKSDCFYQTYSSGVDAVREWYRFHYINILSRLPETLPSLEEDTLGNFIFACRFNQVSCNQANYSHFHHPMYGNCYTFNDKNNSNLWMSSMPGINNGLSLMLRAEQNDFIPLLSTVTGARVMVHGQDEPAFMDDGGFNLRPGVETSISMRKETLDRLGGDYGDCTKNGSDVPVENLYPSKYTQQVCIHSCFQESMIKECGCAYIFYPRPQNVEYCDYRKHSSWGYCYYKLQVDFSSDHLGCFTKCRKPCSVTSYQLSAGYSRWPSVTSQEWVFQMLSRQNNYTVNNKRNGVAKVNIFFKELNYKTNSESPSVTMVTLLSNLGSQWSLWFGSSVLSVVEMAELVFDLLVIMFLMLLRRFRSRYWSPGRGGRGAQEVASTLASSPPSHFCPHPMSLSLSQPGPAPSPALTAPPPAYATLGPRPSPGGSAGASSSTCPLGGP
T1 sequence (P51168 1-640): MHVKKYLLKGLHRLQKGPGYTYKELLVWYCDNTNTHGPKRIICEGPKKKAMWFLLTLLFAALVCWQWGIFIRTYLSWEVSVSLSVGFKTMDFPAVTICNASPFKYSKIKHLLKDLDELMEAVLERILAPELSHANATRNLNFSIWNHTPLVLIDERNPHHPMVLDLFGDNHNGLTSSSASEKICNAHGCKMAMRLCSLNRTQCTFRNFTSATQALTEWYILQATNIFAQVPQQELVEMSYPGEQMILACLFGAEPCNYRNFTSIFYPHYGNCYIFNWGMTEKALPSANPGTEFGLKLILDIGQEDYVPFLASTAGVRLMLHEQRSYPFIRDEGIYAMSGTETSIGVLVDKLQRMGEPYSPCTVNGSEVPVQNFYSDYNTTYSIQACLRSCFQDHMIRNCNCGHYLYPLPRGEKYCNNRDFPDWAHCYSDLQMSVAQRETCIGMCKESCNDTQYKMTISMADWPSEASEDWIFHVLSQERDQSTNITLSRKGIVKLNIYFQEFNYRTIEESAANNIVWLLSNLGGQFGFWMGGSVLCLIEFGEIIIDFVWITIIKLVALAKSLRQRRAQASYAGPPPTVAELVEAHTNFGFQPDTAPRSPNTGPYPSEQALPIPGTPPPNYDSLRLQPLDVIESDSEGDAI
T1 sequence (P51170 1-649): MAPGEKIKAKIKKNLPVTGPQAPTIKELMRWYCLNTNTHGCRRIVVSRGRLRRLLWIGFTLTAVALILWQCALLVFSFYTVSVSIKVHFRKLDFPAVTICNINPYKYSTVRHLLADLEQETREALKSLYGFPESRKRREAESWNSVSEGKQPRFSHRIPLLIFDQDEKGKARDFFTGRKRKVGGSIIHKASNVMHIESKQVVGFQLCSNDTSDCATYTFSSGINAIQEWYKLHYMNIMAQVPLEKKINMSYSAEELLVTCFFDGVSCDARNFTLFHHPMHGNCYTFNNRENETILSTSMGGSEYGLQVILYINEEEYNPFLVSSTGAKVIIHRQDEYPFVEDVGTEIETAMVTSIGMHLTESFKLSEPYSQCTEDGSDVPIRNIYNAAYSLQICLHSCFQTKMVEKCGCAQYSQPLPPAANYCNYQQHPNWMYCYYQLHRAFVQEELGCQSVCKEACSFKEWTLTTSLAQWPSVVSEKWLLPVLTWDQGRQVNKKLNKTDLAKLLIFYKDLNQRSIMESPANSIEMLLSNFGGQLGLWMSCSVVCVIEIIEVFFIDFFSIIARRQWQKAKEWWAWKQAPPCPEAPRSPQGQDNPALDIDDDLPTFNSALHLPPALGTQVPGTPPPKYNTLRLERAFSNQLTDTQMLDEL
The experiment in a line: Sodium Channel ENaC Ussing Chamber Test (short circuit current). In kind it is cell-based. To be noted: human primary bronchial epithelial cells at air-liquid interface; inhibition of short circuit current; compounds added to the apical side. The procedure: Sodium Channel ENaC Ussing Chamber Test
Human primary bronchial epithelial cells differentiated at air-liquid interface (ALI) on snapwell permeable supports (MatTek Corporation, MA, USA, cat no AIR-100-SNP) were maintained at ALI culture in a humidified incubator at 37° C. and 5% CO2. Basolateral medium (MatTek Corporation, MA, USA cat no AIR-100-MM-ASY) was changed every second day. Mucus or liquid formed on the apical side was gently aspirated every second day to maintain viability and performance of the cells.
The transepithelial voltage between the luminal/apical and basolateral membrane were measured in the ussing chamber consisted of vertical, in-house manufactured ussing chambers, DVC-1000 V/C clamps with preamplifiers (World Precision Instruments), electrode kits (EK1, World Precision Instruments), Power Lab with Chart5 software, water bath with external circulation and carbogen gas distribution and regulation system. Electrodes used in the set up were casted manually using 4% agarose in 0.9% sterile NaCl according to the manufacturer's recommendation.
The ussing chambers were assembled with an empty snapwell membrane (Costar 3407) and electrodes contained in Kreb's buffer (SIGMA-ALDRICH cat no K3753) for one hour at 37° C. in presence of 95% oxygen and 5% carbon dioxide. After this equilibration step the system was compensated for fluid resistance and input offset.
The equilibrated chambers were reassembled with a snapwell containing ALI cells and after 20 minutes stabilisation cumulative doses of the compounds were added to the apical side of the membrane. After the final dose 10 μM Benzamil was added to reach maximum.
All test compounds, including the reference compound, were diluted from 10 mM stocks in 100% DMSO and added to opaque 96-well plates (Greiner, Cat No. 651201). Dilution series of 12 doses were prepared in DMSO, starting with 3 μM followed by 10 times dilution steps.
Chart5 for Windows software was used to measure the value of the short circuit current after each compound addition. The data was transferred into Excel and analysed using IDBS XLfit® 5.2 (ID Business Solutions Ltd). The molar concentration of test or reference compound producing 50% inhibition (curve IC50) was derived by fitting data to a 4-parameter logistic function of the form: y=(A+((B−A)/(1+(((10^C)/x)^D))))
A The bottom plateau of the curve, i.e. the final minimum y value
B The top of the plateau of the curve i.e. the final maximum y value
C The log10 x value at a y value of 50%.

The subject of another assay is normal subjects. To be noted: treatment of normal subjects; cited from earlier work.
The subject of assay [1] is ENaC β-subunit overexpressing transgenic mice. As to conditions: administration to the lungs of the mice for 14 days after birth; cited from earlier work.

Usually IC50 stands for the midpoint of a concentration-inhibition curve. Lower therefore signals higher potency.

In turn, `CCCCCCN(CCNC(=O)c1ccc(CCNC[C@H](CNC(=O)c2nc(Cl)c(N)nc2N)Cc2ccccc2C)cc1)C[C@H](O)[C@@H](O)[C@H](O)[C@H](O)CO` [Example 12, 3,5-diamino-6-chloro-N—((R)-3-((4-((2-(hexyl((2S,3R,4R,5R)-2,3,4,5,6-pentahydroxyhexyl)amino)ethyl)carbamoyl)phenethyl)amino)-2-(2-methylbenzyl)propyl)pyrazine-2-carboxamide Dihydrochloride] had an IC50 at Sodium Channel ENaC of 0.251 nM.

With `CCCCCCN(CCNC(=O)c1ccc(CCNC[C@H](CNC(=O)c2nc(Cl)c(N)nc2N)Cc2ccccc2C)cc1)C[C@H](O)[C@@H](O)[C@H](O)CO` [Example 13, 3,5-diamino-6-chloro-N—((R)-3-((4-((2-(hexyl((2S,3R,4R)-2,3,4,5-tetrahydroxypentyl)amino)ethyl)carbamoyl)phenethyl)amino)-2-(2-methylbenzyl)propyl)pyrazine-2-carboxamide Dihydrochloride], the IC50 at Sodium Channel ENaC is 0.0794 nM.

On to `CCCCCCN(CCNC(=O)c1ccc(CNC[C@@H](CNC(=O)c2nc(Cl)c(N)nc2N)Cc2ccccc2C)cc1)C[C@H](O)[C@@H](O)[C@H](O)CO` [Example 14, 3,5-diamino-6-chloro-N—((S)-3-((4-((2-(hexyl((2S,3R,4R)-2,3,4,5-tetrahydroxypentyl)amino)ethyl)carbamoyl)benzyl)amino)-2-(2-methylbenzyl)propyl)pyrazine-2-carboxamide Acetic Acid], for which, on Sodium Channel ENaC, half-maximal inhibition (IC50) was put at 31.6 nM.

Take `N=C(N)NC(=O)c1nc(Cl)c(N)nc1N` [amiloride]: in the assay on normal subjects, the ASL volume result is “increases” and the MCC rates result was “increases”. In assay [1], the mortality result was “significantly reduced”.
